Common to all, as to assay type: in vivo
One test deals with Phytophthora infestans. The conditions noted are these: tomato plants, protective spray, evaluated 3 days after inoculation.
The test system of a further test is Alternaria solani. Nature of the test: Alternaria test (tomatoes)/protective. The conditions noted are these: tomato plants, protective spray, evaluated 3 days after inoculation; for pest or weed control at 50 ppm: rate of application 50 ppm; for pest or weed control at 25 ppm: rate of application 25 ppm. The method, then:
(§1) Solvent: 24.5 parts by weight of acetone
(§2) • 24.5 parts by weight of dimethylacetamide Emulsifier: 1 part by weight of alkylaryl polyglycol ether
(§3) To produce a suitable preparation of active compound, 1 part by weight of active compound is mixed with the stated amounts of solvent and emulsifier, and the concentrate is diluted with water to the desired concentration.
To test for protective activity, young plants are sprayed with the preparation of active compound at the stated rate of application. After the spray coating has dried on, the plants are inoculated with an aqueous spore suspension of Alternaria solani. The plants are then placed in an incubation cabinet at approximately 20° C. and a relative atmospheric humidity of 100%.
The test is evaluated 3 days after the inoculation. 0% means an efficacy which corresponds to that of the control while an efficacy of 100% means that no disease is observed.

The subject of the next test is Venturia inaequalis. Nature of the test: Venturia test (apples)/protective. The conditions noted are these: apple plants, protective spray, rate of application 100 ppm, evaluated 10 days after inoculation. The method, then:
as §1, §2, §3
To test for protective activity, young plants are sprayed with the preparation of active compound at the stated rate of application. After the spray coating has dried on, the plants are inoculated with an aqueous conidia suspension of the causal agent of apple scab (Venturia inaequalis) and then remain for 1 day in an incubation cabinet at approximately 20° C. and a relative atmospheric humidity of 100%.
The plants are then placed in a greenhouse at approximately 21° C. and a relative atmospheric humidity of approximately 90%.
The test is evaluated 10 days after the inoculation. 0% means an efficacy which corresponds to that of the control, while an efficacy of 100% means that no disease is observed.

A further test concerns Botrytis cinerea. Nature of the test: Botrytis test (beans)/protective. The conditions noted are these: bean plants, protective spray, lesion size 2 days after inoculation. As for the experimental part: as §1, §2, §3
To test for protective activity, young plants are sprayed with the preparation of active compound. After the spray coating has dried on, 2 small pieces of agar covered with growth of Botrytis cinerea are placed on each leaf. The inoculated plants are placed in a darkened chamber at 20° C. and a relative atmospheric humidity of 100%.
2 days after the inoculation, the size of the lesions on the leaves is evaluated. 0% means an efficacy which corresponds to that of the control, while an efficacy of 100% means that no disease is observed.

[1] abbreviates: Alternaria solani, 72 h, rate of application 10 ppm, read-out: Efficacy in %.
The mark [2] stands for this setting: Alternaria solani, 72 h, read-out: Efficacy in %.

Counter-ions that a name gives are not always drawn. Like-named read-outs stand apart in the source and are kept apart here.

mancozeb yielded an Efficacy in % in the test on Phytophthora infestans (rate of application 10 ppm) of 0%.

In the case of `COC(=O)N(OC)c1ccccc1COc1ccn(-c2ccc(Cl)cc2)n1` [pyraclostrobin], the pest or weed control at 10 ppm with Alternaria solani (setting [1]) stood at 45%.

With `Cc1ccc(C(C)NC(=O)[C@@H](NC(=O)OC(C)C)C(C)C)cc1` (stereo partly drawn) [iprovalicarb], in the test on Phytophthora infestans (rate of application 1 ppm), the Efficacy in % was 16%.

propineb [Ppopineb] came in with an Efficacy in % with Phytophthora infestans (rate of application 10 ppm) of 0%.

For `Cn1cc(C(=O)Nc2ccc(F)cc2-c2ccc(Cl)c(Cl)c2)c(C(F)F)n1` [bixafen, N-(3′,4′-dichloro-5-fluorobiphenyl-2-yl)-3-(difluoromethyl)-1-methyl-1H-pyrazole-4-carboxamide], the pest or weed control at 1.25 ppm in the test on Alternaria solani (Alternaria solani, 72 h, rate of application 1.25 ppm, read-out: Efficacy in %) was determined as 65%.

`CCO[PH](=O)O` [fosetyl-Al] registered an Efficacy in % in the test with Phytophthora infestans (rate of application 10 ppm) of 0%.

Regarding `OC(Cc1ccccc1Cl)(Cn1nc[nH]c1=S)C1(Cl)CC1` (stereo not drawn) [prothioconazole], the pest or weed control at 2.5 ppm with Alternaria solani (Alternaria solani, 72 h, rate of application 2.5 ppm, read-out: Efficacy in %) was 23%.

On to `Cc1nn(C)c(F)c1C(=O)Nc1ccccc1C(C)CC(C)C` (stereo not drawn) [N-[2-(1,3-dimethylbutyl)phenyl]-5-fluoro-1,3-dimethyl-1H-pyrazole-4-carboxamide], for which the pest or weed control at 1 ppm in the test on Alternaria solani (Alternaria solani, 72 h, rate of application 1 ppm, read-out: Efficacy in %) stood at 18%.

`CN/C(=N\[N+](=O)[O-])NCc1cnc(Cl)s1` [clothianidin] returned an Efficacy in % in the test with Venturia inaequalis of 66%.

`CC(C)NC(=O)N1CC(=O)N(c2cc(Cl)cc(Cl)c2)C1=O` [iprodione] gave an Efficacy in % in the test on Botrytis cinerea (rate of application 100 ppm) of 66%.

For the compound `O=C(Nc1ccccc1-c1ccc(Cl)cc1)c1cccnc1Cl` [boscalid], the Efficacy in % in the test on Botrytis cinerea (rate of application 5 ppm) is on record as 21%.

`CON=C(C(=O)OC)c1ccccc1CON=C(C)c1cccc(C(F)(F)F)c1` [trifloxystrobin]: the pest or weed control at 10 ppm in the test with Alternaria solani (setting [1]) was found to be 35%.

In turn, `CO/C=C(/C(=O)OC)c1ccccc1Oc1cc(Oc2ccccc2C#N)ncn1` [azoxystrobin] registered an Efficacy in % with Alternaria solani (rate of application 10 ppm) of 15%.

In the case of `N#Cc1c[nH]cc1-c1cccc2c1OC(F)(F)O2` [fludioxonil], the Efficacy in % with Botrytis cinerea (rate of application 5 ppm) was found to be 45%.

Take `CC(C)(C)C(O)(CCc1ccc(Cl)cc1)Cn1cncn1` (stereo not drawn) [tebuconazole]: the pest or weed control at 10 ppm with Alternaria solani (setting [1]) worked out at 55%.

Consider `CCNC(=O)NC(=O)/C(C#N)=N/OC` [cymoxanil], for which the Efficacy in % in the test with Venturia inaequalis was determined as 23%. The pest or weed control at 50 ppm in the test on Alternaria solani (setting [2]) was found to be 23%.

Turning to `CO/N=C(/C1=NOCCO1)c1ccccc1Oc1ncnc(Oc2ccccc2Cl)c1F` [fluoxastrobin], in the test on Alternaria solani (setting [1]), the pest or weed control at 10 ppm was found to be 15%.

In turn, `N#Cc1c(Cl)c(Cl)c(Cl)c(C#N)c1Cl` [chlorothalonil] had an Efficacy in % with Phytophthora infestans (rate of application 25 ppm) of 44%. In addition, the pest or weed control at 50 ppm with Alternaria solani (setting [2]) turned out to be 71%.

Compound `CCCOC(=O)NCCCN(C)C` [propamocarb-HCl] showed an Efficacy in % in the test with Venturia inaequalis of 4%. The pest or weed control at 50 ppm in the test on Alternaria solani (setting [2]) was determined as 38%.

In the test with Venturia inaequalis, `O=[N+]([O-])NC1=NCCN1Cc1ccc(Cl)nc1` [imidacloprid] showed an Efficacy in % of 4%. Also, in the test on Alternaria solani (setting [2]), the pest or weed control at 25 ppm was 0%.

For `CCCCCOC(=O)Nc1cccc(CON=C(c2ccccc2)c2nnnn2C)n1` [formula 1, pentyl {6-[({[(1-methyl-1H-tetrazol-5-yl)(phenyl)methylidene]amino}oxy)methyl]pyridin-2-yl}carbamate], the Efficacy in % was determined as 47% with Phytophthora infestans (rate of application 0.25 ppm); 57% in the test on Phytophthora infestans (rate of application 0.5 ppm); 77% with Phytophthora infestans (rate of application 1 ppm); 8% in the test with Venturia inaequalis; 4% with Botrytis cinerea (rate of application 50 ppm); 4% with Botrytis cinerea (rate of application 100 ppm). In addition, the pest or weed control at 5 ppm in the test on Alternaria solani (Alternaria solani, 72 h, rate of application 5 ppm, read-out: Efficacy in %) was found to be 0%. Further, the pest or weed control at 10 ppm in the test with Alternaria solani (setting [1]) worked out at 0%. Further, the pest or weed control at 25 ppm in the test on Alternaria solani (setting [2]) amounted to 0%. Moreover, the pest or weed control at 50 ppm in the test on Alternaria solani (setting [2]) is 8%. In addition, the pest or weed control at 100 ppm with Alternaria solani (Alternaria solani, 72 h, rate of application 100 ppm, read-out: Efficacy in %) is 0%.

`O=[N+]([O-])c1cc(C(F)(F)F)c(Cl)c([N+](=O)[O-])c1Nc1ncc(C(F)(F)F)cc1Cl` [fluazinam] registered an Efficacy in % with Botrytis cinerea (rate of application 10 ppm) of 79%.
